Reference: PMC10747602, “Dose Response, Dosimetric, and Metabolic Evaluations of Replacement PFAS Perfluoro-(2,5,8-trimethyl-3,6,9-trioxadodecanoic) Acid (HFPO-TeA)” (Toxics, 2023)
Like-named read-outs stand apart in the source and are kept apart here.

Columns and labels:
[1] = Liver-to-plasma partitioning (Kp); format: in vivo, Sprague Dawley rats; settings: Sprague Dawley, rat, oral, 5 days
Description: Liver samples were analyzed using the same analytical assessment procedure as the plasma dosimetry samples. Matrix blanks were analyzed with each sample set. HFPO-TeA was not detected in the blanks above the limit of quantitation (LOQ) of 1.58 µM. Statistical analysis is described in Supplementary Text S3, normalization calculations are described in Supplementary Text S5 [47], and the liver-to-plasma partitioning calculation is outlined in Supplementary Text S7 [32, 50, 51]. […]
tube, and then further crashed with 200 µL ACN. This was repeated twice more to generate a final combined supernatant volume of 600 µL. Supernatants were stored at -20 °C prior to analysis.
Samples were quantitated against matrix-matched calibration curves containing a minimum of 5 points spanning the range 0.99 – 141 ng/mg liver (wet weight, ww). For the calibration standards, commercial rat liver (BioIVT) was spiked with HFPO-TeA and PFHxDA, homogenized, and extracted using the above procedure.
Support ing Text S7: Plasma-to-Liver Partitioning Calculations
Concentrations of HFPO-TeA in liver and plasma were used to calculate experimental Kp values for both sexes across all dose levels using Equation A [3-5].

Liver HFPO-TeA dosimetry = format: in vivo, Sprague Dawley rats; settings: for 5D Liver Conc.: 5 days of exposure, mean ± SD n=4; for concentration at 5 days: Sprague Dawley, rat, liver, oral, wet weight, individual rats, read-out: Liver Conc.
Description: Whole blood was collected from the retro-orbital plexus under isoflurane anesthesia 2 h following the first dose and by cardiac puncture 24 h after the last dosage. Blood was stored in anticoagulant potassium ethylenediaminetetraacetic acid (K3EDTA)-coated vacutainers, and then processed to isolate plasma via centrifugation. Animals were euthanized via carbon dioxide asphyxiation and subsequent exsanguination. Liver was collected, weighed, cubed, and divided into three aliquots. One aliquot of tissue was flash-frozen in liquid nitrogen and stored at −80 °C for analytical chemistry analyses. The remaining two aliquots were placed in RNALater and frozen for use in the companion transcriptomic study. Liver and plasma samples were received at the U.S. EPA Center for Computational Toxicology and Exposure, Advanced Analytical Chemistry Methods Branch in Research Triangle Park, North Carolina, USA, and stored at −80 °C prior to extraction.
Information on the chemicals and materials used in the liver plasma HFPO-TeA dosimetry work can be found in Supplementary Text S6 and Table S3. Liver sample preparation was modified from Conley et al.’s work and detailed in Supplementary Text S6 [49]. Briefly, samples were spiked with the internal standard PFHxDA then homogenized in 200 µL of ACN containing 0.1% formic acid. The sample was centrifuged, and the supernatant was transferred. This process was repeated twice more, then stored at −20 °C prior to analysis.
Liver samples were analyzed using the same analytical assessment procedure as the plasma dosimetry samples. Matrix blanks were analyzed with each sample set. HFPO-TeA was not detected in the blanks above the limit of quantitation (LOQ) of 1.58 µM. Statistical analysis is described in Supplementary Text S3, normalization calculations are described in Supplementary Text S5 [47], and the liver-to-plasma partitioning calculation is outlined in Supplementary Text S7 [32, 50, 51].
All in vivo results values are reported as mean ± one standard deviation (SD). Statistical evaluation of in vivo data was conducted using a two-way analysis of variance (ANOVA) and Dunnett’s Test, both at α = 0.05 significance level, on GraphPad Prism v9.5.1.
Support ing Text S4: Plasma Dosimetry Chemicals, Materials, and Analysis Sprague Dawley rodent plasma (pooled, mixed sex) collected with ethylenediaminetetraacetic acid (EDTA) and sterile filtered (0.2 µm) was obtained from BioIVT (Westbury, NY, USA) and stored at -80 °C until use as the control matrix for generating calibration curves and as the matrix blank during plasma sample analysis. The HFPO-TeA (98.97% pure) used for calibration curve preparation was obtained from Oakwood Products Inc. (West Columbia, South Carolina, USA). Unlabeled perfluorohexadecanoic acid (CASRN 67905-19-5 | DTXSID1070800 | PFHxDA; ≥ 98% pure) was obtained from Cambridge Isotope Laboratories (Tewksbury, MA, USA) to serve as the internal standard since a labeled HFPO-TeA standard was not commercially available. […]
Samples were quantitated against matrix-matched calibration curves containing a minimum of 5 points spanning the range 20 – 80,280 ng/mL plasma. Calibrants were prepared by spiking commercial rat plasma (BioIVT) with HFPO-TeA and PFHxDA and then extracted in the same manner as study samples.
Support ing Text S5: Normalization of Dosimetry Data Calculations
Percent dose of HFPO-TeA in plasma was calculated using the observed plasma concentrations and the average plasma volume for Sprague Dawley rats. The density of plasma was then used to convert from mL plasma to grams plasma for ease of comparison to the liver percent dose data. Average percent dose of HFPO-TeA in liver was calculated using the observed liver concentrations and liver weights. These calculations allow for a comparison of the potential saturation of available proteins in […]
Support ing Text S6: Liver Dosimetry Chemicals, Materials, and Analysis […]

Sprague Dawley rats = assay: Mortality in five-day oral gavage exposure; LD50 calculation (BMDS 3.3.2); settings: for LD50 estimate (lower and upper 95% bounds): oral gavage, BMDS 3.3.2 multistage 3 model
Description: Male and female rats (n = 4/sex, dose, and time point) were dosed by gavage (5 mL/kg bodyweight) once daily for five days with water (vehicle control) or HFPO-TeA at eight half-log dose levels ranging from 0.3 to 335.2 mg/kg/day (i.e., 0.3, 0.9, 2.3, 6.3, 17, 45.9, 124, and 335.2). The results reported here are part of a larger study, for which the main purpose was to use benchmark dose–response modeling of transcriptomic data to identify a gene set basis for the point of departure (POD).
Clinical observations were performed prior to first administration and at termination. Moribundity and mortality were assessed twice daily on weekdays and once daily on weekends. Animals found moribund were euthanized by carbon dioxide inhalation and death was confirmed by cervical dislocation.
The mortality incident data were analyzed using BMDS 3.3.2, with the dichotomous model selected as the model type. The Benchmark Response was set at 0.5 extra risk. LD50 estimates were based on the model with the lowest Akaike information criterion (AIC).

In the case of `O=C(O)C(F)(OC(F)(F)C(F)(OC(F)(F)C(F)(OC(F)(F)C(F)(F)C(F)(F)F)C(F)(F)F)C(F)(F)F)C(F)(F)F` (stereo not drawn) [HFPO-TeA, perfluoro-(2,5,8-trimethyl-3,6,9-trioxadodecanoic) acid], the Kp at 120 h ([1]; female, 0.3 mg/kg/day, F, mean ± SD n=4, read-out: Liver Kp (liver-to-plasma ratio)) is reported as 7.81 ± 4.68, the Kp at 120 h ([1]; female, 0.9 mg/kg/day, F, mean ± SD n=4, read-out: Liver Kp (liver-to-plasma ratio)) is reported as 4.04 ± 1.37 and the Kp at 120 h ([1]; female, 2.3 mg/kg/day, F, mean ± SD n=4, read-out: Liver Kp (liver-to-plasma ratio)) is reported as 1.9 ± 1.47. It also gave a Kp at 120 h ([1]; female, 6.3 mg/kg/day, F, mean ± SD n=4, read-out: Liver Kp (liver-to-plasma ratio)) of 1.65 ± 0.46, a Kp at 120 h ([1]; female, 17 mg/kg/day, F, mean ± SD n=4, read-out: Liver Kp (liver-to-plasma ratio)) of 0.903 ± 0.145 and a Kp at 120 h ([1]; male, 0.3 mg/kg/day, M, mean ± SD n=4, read-out: Liver Kp (liver-to-plasma ratio)) of 7.28 ± 3.71. The Kp at 120 h ([1]; male, 0.9 mg/kg/day, M, mean ± SD n=4, read-out: Liver Kp (liver-to-plasma ratio)) was 3.38 ± 1.24, the Kp at 120 h ([1]; male, 2.3 mg/kg/day, M, mean ± SD n=4, read-out: Liver Kp (liver-to-plasma ratio)) was 1.54 ± 0.91 and the Kp at 120 h ([1]; male, 6.3 mg/kg/day, M, mean ± SD n=4, read-out: Liver Kp (liver-to-plasma ratio)) was 3.41 ± 0.6. The Kp at 120 h ([1]; male, 17 mg/kg/day, M, mean ± SD n=4, likely influenced by high toxicity and stress, read-out: Liver Kp (liver-to-plasma ratio)) was 1.32 ± 0.55, the “5D Liver Conc.” value (Liver HFPO-TeA dosimetry; 0.9 mg/kg/day, F) was 14.0 ± 4.3 µM and the “5D Liver Conc.” value (Liver HFPO-TeA dosimetry; 2.3 mg/kg/day, F) was 16.5 ± 12.6 µM. For the same compound, the “5D Liver Conc.” value (Liver HFPO-TeA dosimetry; 2.3 mg/kg/day, M) was 10.3 ± 7.5 µM, the “5D Liver Conc.” value (Liver HFPO-TeA dosimetry; 6.3 mg/kg/day, F) was 86.8 ± 31.7 µM and the “5D Liver Conc.” value (Liver HFPO-TeA dosimetry; 6.3 mg/kg/day, M) was 82.7 ± 10.5 µM. For the same compound, the “5D Liver Conc.” value (Liver HFPO-TeA dosimetry; 17 mg/kg/day, F) was 250 ± 39 µM, the “5D Liver Conc.” value (Liver HFPO-TeA dosimetry; 17 mg/kg/day, M) was 210 ± 85 µM and the concentration at 5 days (Liver HFPO-TeA dosimetry; female, 0.9 mg/kg/day, F) was 9240 ng/g. For the same compound, the concentration at 5 days (Liver HFPO-TeA dosimetry; female, 17 mg/kg/day, F) was 174000 ng/g, the concentration at 5 days (Liver HFPO-TeA dosimetry; male, 6.3 mg/kg/day, M) was 61600 ng/g and the “LD50 estimate (lower and upper 95% bounds)” value (Sprague Dawley rats; females) was 28.23 (18.69 and 41.57) mg/kg/day. The premature death (Sprague Dawley rats; male and female rats, 45.9, 124, and 335.2 mg/kg/day dose groups) was “Premature death occurred”, the “doses at which mortality was observed” value (Sprague Dawley rats; male and female rats, oral gavage five days) was greater than 17 mg/kg/day and the “LD50 estimate (lower and upper 95% bounds)” value (Sprague Dawley rats; males) was 37.77 (26.09 and 59.96) mg/kg/day.
